Where “and” joins values, the source holds several entries; their conditions need not be identical. Equal entries are not always repeated.
Tests used:
corn [1] = assay: Boron absorption into corn leaf after foliar application, growth stage V5 (Example 4)
Description: Each solution was applied independently of one another at these rates, and the applications emulated commercial application conditions, with 30-inch spacings. The test solutions were applied to three different fields to allow for data replication. The corn was at growth stage V5 during the test. Each test solution was evenly applied using a portable foliar applicator ([…] M18 sprayer with a four-gallon tank). Application time per row was recorded to allow for the calculation of an average application rate of the applicator. Any remaining application solution was weighed to allow for the exact calculation of applied solution per acre (converted below to ounces per acre). The solution application rates are reported below in Table 11 and boron application rates are reported below in Table 12. Applications were done in the heat of the day (96° F.), with minimal wind to preclude drift. Control strips for each product at both application rates were identified, and tissue samples from the control strips were collected to reflect an application rate of 0.00 ounces of product per 68 ounces of water.
Tissues were collected after two days using standard tissue collection procedures. Twelve top collar leaves were collected per row. The leaf samples were placed in paper bags and sent to a commercial lab for leaf mineral analysis using ICP-AA.
The application rates reported above Table 11 were adjusted by the concentration of the applied product so that the data could be compared on an equivalent basis, which are reported in Table 12. Tissue boron was regressed against the adjusted applied rates using the Fit Y×X model of SAS JMP (v. 15.0). The Experimental Unit was Field.
Five chemical compounds containing boron were evaluated. The slope of the line was defined according to the following equation: […]

corn [2] = assay: Boron absorption into corn leaf after foliar application, growth stage V7 (Example 5); format: in vivo; details: leaves collected after two days
Description: The same procedure of Example 4 was followed for this Example, and the same application solutions at rate 2 were used and applied to three separate fields of corn at growth stage V7.
Twelve top collar leaves were collected per row.
Tissue boron data were analyzed using the Fit Y×X module of SAS JMP (v. 15.0). The tissue data were compared using the Oneway Analysis option. Means for boric acid and boron lysinate were separated using the Student's t-test.

[3] = corn V5, foliar application, top collar leaves collected after two days, slope of tissue boron vs applied boron

B Absorption, ppm/oz applied B (corn [1]; corn, in vivo, 2 days) [ppm/oz applied B]	increase of corn tissue boron for every ounce of boron applied (corn [1]; corn, in vivo, 2 days) [ppm]	Compound	boron absorption greater than boric acid (corn [1]; corn V5, Example 4)	increase of corn tissue boron for every ounce of boron applied (corn [1]; corn V5, Example 4, per ounce applied boron) [ppm]	B Absorption, ppm/oz applied B (corn [1]; [3]) [ppm/oz applied B]	Boron Absorption, ppm/oz B (corn [2])	Boron Absorption, ppm/oz B (corn [2]; listed as boron lysinate) [ppm/oz B]	decrease of boron absorbed into leaf tissue compared to boric acid (corn [1]; corn V5, Example 4) [ppm]
4.58	4.58	OB(O)O [Boric acid, boric acid, reference compound]	–	–	–	–	–	–
–	–	boron lysinate	3.92 ppm and 3.08 ppm	7.66	7.66	13.13 ppm/oz B and 13.13^b ppm/oz B	13.13	–
–	–	ethanolamine boron [Boron ethanolamine, reference compound]	–	–	4.13	–	–	0.45
